Columns and labels:
[1] = tested on: experimental autoimmune encephalomyelitis (EAE) mice; experiment: Experimental autoimmune encephalomyelitis (EAE) mouse model of multiple sclerosis; assay type: in vivo; details: 6 mg/kg IP, up to 30 days, vs saline control, p<0.01, FIG. 9
Description: (§1) Effectiveness of treatment with thymosin β4 was tested in stroke (middle cerebral artery occlusion (MCAo)) rats and in experimental autoimmune encephalomyelitis (EAE) mice (a well-established in vivo model for multiple sclerosis). Both the stroke rats and the EAE mice were treated with 6 mg/kg thymosin β4 intraperitoneally (IP) in a volume of 0.3 mL twenty-four hours after stroke or after the day of immunization in the EAE model and then every three days (6 mg/kg IP) for four additional doses. An equal volume of saline was administered (IP) to a group of both stroke rats and EAE mice as a control. Bromodeoxyuridine (BrdU; 100 mg/kg) was administered (IP) daily for seven days, initiated 24 hours after MCAo to label proliferating cells. Behavioral tests (adhesive removable test and NSS (Neurological Severity Score)) were performed immediately before treatment and at days 1, 7, 14, 21, 28, 35, 42, 49, and 56 days after MCAo and up to 30 days in the EAE mouse model. All rats were sacrificed 56 days after MCAo; EAE mice were sacrificed at 30 days.

[2] = tested on: stroke (middle cerebral artery occlusion (MCAo)) rats; experiment: Embolic middle cerebral artery occlusion (MCAo) stroke model in rats; assay type: in vivo, rat
Description: as §1

[3] = embolic stroke rats, 6 mg/kg IP, vs saline control

thymosin β4
functional neurological score [1]: robust improvement
number of myelinated axons (Bielschowsky and Luxol Fast Blue staining) ([2]; after MCAo, treated vs control, p<0.05, FIG. 4): increased
cellular proliferation (BrdU expression, number of BrdU immunoreactive cells) ([2]; after MCAo, treated vs control, p<0.05, FIG. 8): increased
number of oligodendrocyte progenitors and matured oligodendrocytes ([2]; after MCAo, treated vs control, p<0.05, FIGS. 5-7): increased
functional improvement in behavioral tests (adhesive removal test, NSS) ([2]; beginning at 21 days after stroke onset, 6 mg/kg IP, p<0.05, FIG. 1-2): Significant functional improvement
relative increase in BrdU expression in the striatum or myelinated region of the rat brain ([2]; embolic stroke rats, 6 mg/kg IP 24 h after stroke, then every three days for four additional doses, sacrificed 56 days after MCAo): 42%
increase in CNP, a marker of mature oligodendrocytes [2, 3]: 11%
increase in NG-2, a marker of immature oligodendrocytes [2, 3]: 47%
